The assay deals with T1, Recombinant human ASK1 kinase (Homo sapiens, UniProt Q99683).
T1 construct: purchased Invitrogen Inc
T1 sequence (Q99683 1-1374): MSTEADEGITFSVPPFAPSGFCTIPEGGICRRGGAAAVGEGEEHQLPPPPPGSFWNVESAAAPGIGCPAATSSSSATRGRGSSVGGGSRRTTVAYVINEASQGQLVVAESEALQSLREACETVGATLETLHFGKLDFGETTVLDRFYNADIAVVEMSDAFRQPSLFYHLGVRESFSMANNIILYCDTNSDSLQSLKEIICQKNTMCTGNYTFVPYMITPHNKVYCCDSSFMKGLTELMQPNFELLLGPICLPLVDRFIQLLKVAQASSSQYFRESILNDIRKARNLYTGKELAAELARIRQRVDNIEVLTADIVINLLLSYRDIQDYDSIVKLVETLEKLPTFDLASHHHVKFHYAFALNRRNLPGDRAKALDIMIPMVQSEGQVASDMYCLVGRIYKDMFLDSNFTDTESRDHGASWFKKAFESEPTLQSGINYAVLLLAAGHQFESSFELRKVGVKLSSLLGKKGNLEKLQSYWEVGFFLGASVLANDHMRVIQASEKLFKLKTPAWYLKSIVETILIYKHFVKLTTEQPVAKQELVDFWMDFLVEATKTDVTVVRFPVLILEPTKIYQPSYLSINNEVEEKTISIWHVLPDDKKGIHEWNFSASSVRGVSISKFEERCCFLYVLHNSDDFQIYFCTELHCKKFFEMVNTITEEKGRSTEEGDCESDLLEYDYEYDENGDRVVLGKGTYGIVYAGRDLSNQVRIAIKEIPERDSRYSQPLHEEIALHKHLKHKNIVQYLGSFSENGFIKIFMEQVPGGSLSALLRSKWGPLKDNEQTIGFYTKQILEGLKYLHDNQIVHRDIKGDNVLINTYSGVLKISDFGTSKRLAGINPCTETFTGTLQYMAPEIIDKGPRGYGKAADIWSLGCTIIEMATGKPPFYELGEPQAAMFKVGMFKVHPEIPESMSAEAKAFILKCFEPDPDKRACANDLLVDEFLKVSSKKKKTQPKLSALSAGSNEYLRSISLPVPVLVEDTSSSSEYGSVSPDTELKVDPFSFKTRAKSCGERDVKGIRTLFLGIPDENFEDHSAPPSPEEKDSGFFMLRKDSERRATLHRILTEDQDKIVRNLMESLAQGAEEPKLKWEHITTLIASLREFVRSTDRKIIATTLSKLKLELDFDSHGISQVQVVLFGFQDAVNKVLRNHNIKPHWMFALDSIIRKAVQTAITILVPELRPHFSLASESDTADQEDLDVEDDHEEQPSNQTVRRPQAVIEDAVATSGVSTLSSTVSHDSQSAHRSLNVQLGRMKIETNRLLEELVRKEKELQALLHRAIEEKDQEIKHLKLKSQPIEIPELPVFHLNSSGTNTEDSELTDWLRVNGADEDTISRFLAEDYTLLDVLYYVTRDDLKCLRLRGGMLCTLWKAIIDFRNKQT
Briefly: ASK1 kinase HTRF assay (KinEASE-STK). In kind it is biochemical. The note with it: HTRF detection; 3 nM ASK1 kinase, 1 uM STK-substrate-biotin. The procedure:
Reagents: Recombinant human ASK1 kinase was from Invitrogen Inc. HTRF KinEASE™-STK S3 kit was obtained from Cisbio (Bedford, Mass.). All other reagents were of the highest grade commercially available.
Assay: The assay measures the phosphorylation level of a biotinylatd peptide substrate by the ASK1 kinase using HTRF detection. ASK1 kinase assay is based on HTRF KinEASE™-STK manual from Cisbio. Test compound, 1 uM STK-substrate-biotin, 3 nM of ASK1 kinase are incubated with 1*Kinase buffer with 5 mM MgCl2 and 1 mM DTT. 250 nM Sa-XL 665(4*) and STK-antibody-Cryptate work solution are added to stop the reaction and phosphorylated peptide substrate is detected using Envision 2104 Multilabeled reader from PerkinElmer. The fluorescence is measured at 615 nm (Cryptate) and 665 nm (XL665) and a ratio of 665 nm/615 nm is calculated for each well. The resulting TR-FRET level (a ratio of 665 nm/615 nm) is proportional to the phosphorylation level of substrate.
As usually defined, the EC50 is the concentration needed to bring the measured effect to its halfway point. Regarding `CC(C)n1cnnc1-c1cccc(-c2ncc(-c3ccc(C(N)=O)cc3)o2)n1` [Compound I-095], the EC50 lay in the range of 50 to 500 nM.

As for `CC(C)n1cnnc1-c1cccc(-c2ncc(-c3cccc(N4CCOCC4)c3)o2)n1` [Compound I-110], the EC50 was not above 50 nM. The same measure for `CC(C)n1cnnc1-c1cccc(-c2ncc(-c3cccc(-c4ccccn4)c3)o2)n1` [Compound I-106]: 50 to 500 nM.

As to `CNc1ccc(-c2cnc(-c3cccc(-c4nncn4C(C)C)n3)o2)cc1` [Compound I-060], the EC50 is not above 50 nM. As for `CNc1cccc(-c2cnc(-c3cccc(-c4nncn4C(C)C)n3)o2)c1` [Compound I-061], the EC50 is not above 50 nM. Take `CC(C)n1cnnc1-c1cccc(-c2ncc(-c3cccc(N4CCN(C5CC5)CC4)c3)o2)n1` [Compound I-118]: the EC50 is not above 50 nM. Next, `C[C@H](CO)n1cnnc1-c1cccc(-c2ncc(-c3cccc(N4CCNCC4)c3)o2)n1` [Compound I-114]: not above 50 nM.

With `CC(C)n1cnnc1-c1cccc(-c2ncc(-c3ccc4ccccc4c3)o2)n1` [Compound I-101], the EC50 was in the range of 50 to 500 nM. Next, `CC(C)n1cnnc1-c1cccc(-c2ncc(-c3ccccc3O)o2)n1` [Compound I-072]: not above 50 nM. In the case of `CCCCCCOc1cccc(-c2cnc(-c3cccc(-c4nncn4[C@H](C)CO)n3)o2)c1` [Compound I-077], the EC50 was not above 50 nM.

On to `CC(C)n1cnnc1-c1cccc(-c2ncc(-c3cccc(N4CCN(CCO)CC4)c3)o2)n1` [Compound I-012, 2-(4-(3-(2-(6-(4-Isopropyl-4H-1,2,4-triazol-3-yl)pyridin-2-yl)oxazol-5-yl)phenyl)piperazin-1-yl)ethanol], for which the EC50 was not above 50 nM. As to `Cc1cc(C)c(-c2cnc(-c3cccc(-c4nncn4[C@H](C)CO)n3)o2)c(C)c1` [Compound I-033], the EC50 was in the range of 50 to 500 nM. In the case of `CC(C)n1cnnc1-c1cccc(-c2ncc(-c3cccc(C(F)F)c3)o2)n1` [Compound I-087], the EC50 lay in the range of 50 to 500 nM.

Regarding `Cc1ccccc1-c1cnc(-c2cccc(-c3nncn3C(C)C(F)(F)F)n2)o1` (stereo not drawn) [Compound I-027], the EC50 was not above 50 nM. With `CCC(C)n1cnnc1-c1cccc(-c2ncc(-c3ccccc3C)o2)n1` (stereo not drawn) [Compound I-026], the EC50 was in the range of 50 to 500 nM.

Regarding `CC(C)n1cnnc1-c1cccc(-c2ncc(-c3cccc(OC[C@@H]4CNCCO4)c3)o2)n1` [Compound I-079], the EC50 is not above 50 nM. Next, `CC(C)n1cnnc1-c1cccc(-c2ncc(-c3ccc(OC(F)(F)F)cc3)o2)n1` [Compound I-081]: 50 to 500 nM; `CC(C)n1cnnc1-c1cccc(-c2ncc(-c3nc4ccccc4o3)o2)n1` [Compound I-142]: 50 to 500 nM; `C[C@H](CO)n1cnnc1-c1cccc(-c2ncc(-c3cccc(C4=CCCCC4)c3)o2)n1` [Compound I-130]: 50 to 500 nM. Next, `CC(C)n1cnnc1-c1cccc(-c2ncc(-c3ccc(N)cc3)o2)n1` [Compound I-065]: not above 50 nM; `COC(=O)c1ccc(-c2cnc(-c3cccc(-c4nncn4C(C)C)n3)o2)cc1` [Compound I-093]: 50 to 500 nM.

As to `CC(C)n1cnnc1-c1cccc(-c2ncc(-c3ccc(C(=O)O)cc3)o2)n1` [Compound I-094], the EC50 is not above 50 nM. For `c1ccc(-c2cnc(-c3cccc(-c4nncn4C4CC4)n3)o2)cc1` [Compound I-017], the EC50 was in the range of 50 to 500 nM.

For `CC(C)c1ccc(-c2cnc(-c3cccc(-c4nncn4C(C)C)n3)o2)cc1` [Compound I-035], the EC50 is 50 to 500 nM.

As for `Cc1ccc(-c2cnc(-c3cccc(-c4nncn4C(C)CO)n3)o2)c(F)c1` (stereo not drawn) [Compound I-001, 2-(3-(6-(5-(2-Fluoro-4-methylphenyl)oxazol-2-yl)pyridin-2-yl)-4H-1,2,4-triazol-4-yl) propan-1-ol], the EC50 is not above 50 nM.

Consider `COCCOc1cccc(-c2cnc(-c3cccc(-c4nncn4C(C)C)n3)o2)c1` [Compound I-078], for which the EC50 is not above 50 nM. The same measure for `CC(C)n1cnnc1-c1cccc(-c2ncc(-c3cccc(C4CCOCC4)c3)o2)n1` [Compound I-109]: not above 50 nM. For `CC(C)n1cnnc1-c1cccc(-c2ncc(-c3cccc(N4CCCC4)c3)o2)n1` [Compound I-125], the EC50 was not above 50 nM.

Consider `CC(C)n1cnnc1-c1cc(-c2ncc(-c3ccccc3)o2)cs1` [II-01, 3-[4-(5-Phenyl-1,3-oxazol-2-yl)thiophen-2-yl]-4-(propan-2-yl)-4H-1,2,4-triazole], for which the concentration giving a half-maximal response (EC50) lay in the range of 50 to 500 nM.

Take `CC(C)n1cnnc1-c1cccc(-c2ncc(-c3cccc(C(=O)O)c3)o2)n1` [Compound I-008, 3-(2-[6-[4-(Propan-2-yl)-4H-1,2,4-triazol-3-yl]pyridin-2-yl]-1,3-oxazol-5-yl)benzoic acid]: the EC50 was 50 to 500 nM. Consider `C[C@H](CO)n1cnnc1-c1cccc(-c2ncc(-c3cccc(S(C)(=O)=O)c3)o2)n1` [Compound I-097], for which the EC50 is not above 50 nM. For `C[C@H](CO)n1cnnc1-c1cccc(-c2ncc(-c3cccc(S(N)(=O)=O)c3)o2)n1` [Compound I-099], the EC50 was not above 50 nM. Next, `Cc1cc(F)c(-c2cnc(-c3cccc(-c4nncn4[C@H](C)CO)n3)o2)c(F)c1` [Compound I-052]: not above 50 nM.
